Reference: patent publication US7981919B2, “Tricyclic heteroaryl piperazines, pyrrolidines and azetidines as serotonin receptor modulators” (Athersys, Inc., priority 2004, dated 2011)

molecular target: T1, human 5HT2c receptor (VNV Isoform) (Homo sapiens, UniProt P28335, I156V/I160V, form not given); test: Calcium mobilization (FLIPR) 5HT2c receptor agonist assay in HEK 293 EBNA cells; assay type: cell-based; conditions: HEK 293 EBNA cells expressing human 5HT2c receptor, ligand-induced calcium release, read-out: 5-HT2c EC50 (hVSV)
T1 sequence (P28335 1-458 I156V/N158S/I160V): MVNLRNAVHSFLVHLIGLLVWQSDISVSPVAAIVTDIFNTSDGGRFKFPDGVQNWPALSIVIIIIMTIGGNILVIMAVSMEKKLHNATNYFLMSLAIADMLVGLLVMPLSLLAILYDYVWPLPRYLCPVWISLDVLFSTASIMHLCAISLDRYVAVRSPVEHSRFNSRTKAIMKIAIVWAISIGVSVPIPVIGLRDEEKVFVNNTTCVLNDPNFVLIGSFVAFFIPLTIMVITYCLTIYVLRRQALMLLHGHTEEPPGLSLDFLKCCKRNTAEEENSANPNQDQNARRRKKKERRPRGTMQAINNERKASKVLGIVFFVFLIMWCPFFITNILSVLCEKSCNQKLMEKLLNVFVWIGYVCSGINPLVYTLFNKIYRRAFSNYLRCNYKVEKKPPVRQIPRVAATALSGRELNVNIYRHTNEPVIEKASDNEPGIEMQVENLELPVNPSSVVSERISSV
Protocol: The following procedure was utilized to evaluate representative compounds of the present invention as 5HT2c receptor agonists.
5HT was utilized as a positive control. Ligand-induced calcium release and consequent fluorescence was measured on a Fluorometric Imaging Plate Reader (FLIPR, Molecular Device, CA).
All data were analyzed by nonlinear least square curve fitting using Prism 4.0 software. Agonist stimulation of calcium-induced fluorescence in FLIPR was fitted to sigmoidal dose response using equation Y=Bottom+(Top−Bottom)/(1+10 ? ((Log EC50−X))), where X is the logarithm of concentration of compounds and Y is the fluorescent response.

`Brc1sc2c(c1Br)C1CNCC1C2` (stereo not drawn) [Example 22, 2,3-Dibromo-3b,4,5,6,6a,7-hexahydro-1-thia-5-aza-cyclopenta[α]pentalene] and `N#Cc1c(Br)sc2c1C1CNCC1C2` (stereo not drawn) [Example 11, 2-Bromo-3b,4,5,6,6a,7-hexahydro-1-thia-5-aza-cyclopenta[α]pentalene-3-carbonitrile] cannot be ordered by EC50: under 100 nM for the first, under 10000 nM for the second.

`N#Cc1c(Cl)sc2c1C1CNCC1C2` (stereo not drawn) [Example 10, 2-Chloro-3b,4,5,6,6a,7-hexahydro-1-thia-5-aza-cyclopenta[α]pentalene-3-carbonitrile] and `N#Cc1c(Cl)sc2c1CC1CNCC21` (stereo not drawn) [Example 12, 5-Chloro-1,2,3,3a,7,7a-hexahydro-4-thia-2-aza-cyclopenta[α]pentalene-6-carbonitrile] cannot be ordered by EC50: under 10000 nM for the first, under 100 nM for the second.

`Cc1c(Cl)sc2c1C(C)C1CNCC21` (single isomer, unassigned) [26, Enantiomer 2] and `Cc1sc2c(c1Br)C(C)C1CNCC21` (single isomer, unassigned) [27, Enantiomer 1] cannot be ordered by EC50: under 100 nM for the first, under 1000 nM for the second.

`Cc1sc2c(c1Br)C1CNCCC1C2` (single isomer, unassigned) [33, Enantiomer 2] and `Brc1cc2c(s1)CC1CCNCC21` (single isomer, unassigned) [29, Enantiomer 2] cannot be ordered by EC50: under 10000 nM for the first, under 10000 nM for the second.

`CC(C)(C)C(=O)c1sc2c(c1Br)CC1CNCC21` (single isomer, unassigned) [43, Enantiomer 2] and `Brc1sc2c(c1Br)CC1CNCC21` (stereo not drawn) [Example 19, 5,6-Dibromo-1,2,3,3a,7,7a-hexahydro-4-thia-2-aza-cyclopenta[α]pentalene] cannot be ordered by EC50: under 1000 nM for the first, under 1000 nM for the second.

`Cc1ccc(C(=O)c2c(N)sc3c2CC2CNCC32)cc1` (stereo not drawn) [Example 6, (5-Amino-1,2,3,3a,7,7a-hexahydro-4-thia-2-aza-cyclopenta[α]-pentalen-6-yl)-p-tolyl-methanone] and `Nc1sc2c(c1C(=O)c1ccc(Cl)cc1)CC1CNCC21` (stereo not drawn) [Example 7, (5-Amino-1,2,3,3a,7,7a-hexahydro-4-thia-2-aza-cyclopenta[α]-pentalen-6-yl)-(4-chloro-phenyl)-methanone] cannot be ordered by EC50: under 1000 nM for the first, under 10000 nM for the second.

`CC1c2cc(Br)sc2C2CNCC12` (single isomer, unassigned) [36, Enantiomer 2] and `CC1c2sc(I)cc2C2CNCC12` (stereo not drawn) [Example 25, 2-Iodo-7-methyl-3b,4,5,6,6a,7-hexahydro-1-thia-5-aza-cyclopenta[α]pentalene] cannot be ordered by EC50: under 10000 nM for the first, under 1000 nM for the second.

`FC(F)(F)c1sc2c(c1Br)CC1CNCC21` (single isomer, unassigned) [39, Enantiomer 2] and `Cc1c(C(F)(F)F)sc2c1CC1CNCC21` (single isomer, unassigned) [40, Enantiomer 2] cannot be ordered by EC50: under 100 nM for the first, under 100 nM for the second.

`c1ccc2c3c(sc2c1)C1CNCC1C3` (single isomer, unassigned) [45, Enantiomer 2] and `COc1c(Cl)sc2c1CC1CNCC21` (single isomer, unassigned) [42, Enantiomer 2] cannot be ordered by EC50: under 1000 nM for the first, under 10000 nM for the second.

`N#Cc1csc2c1CC1CNCC21` (stereo not drawn) [Example 14, 1,2,3,3a,7,7a-Hexahydro-4-thia-2-aza-cyclopenta[α]pentalene-6-carbonitrile] and `Brc1csc2c1CC1CNCC21` (single isomer, unassigned) [37, Enantiomer 1] cannot be ordered by EC50: under 1000 nM for the first, under 1000 nM for the second.

`CC1c2cc(Br)sc2C2CNCC12` (single isomer, unassigned) [36, Enantiomer 1] and `CC1c2sc(Cl)cc2C2CNCC12` (stereo not drawn) [Example 24, 2-Chloro-7-methyl-3b,4,5,6,6a,7-hexahydro-1-thia-5-aza-cyclopenta[α]pentalene] cannot be ordered by EC50: under 1000 nM for the first, under 1000 nM for the second.

`COc1csc2c1CC1CNCC21` (stereo not drawn) [Example 20, 6-Methoxy-1,2,3,3a,7,7a-hexahydro-4-thia-2-aza-cyclopenta[α]pentalene] and `CCOC(=O)c1csc2c1CC1CNCC21` (stereo not drawn) [Example 3, 1,2,3,3a,7,7a-Hexahydro-4-thia-2-aza-cyclopenta[α]pentalene-6-carboxylic acid ethyl ester] cannot be ordered by EC50: under 1000 nM for the first, under 100 nM for the second.

`Cc1c(Cl)sc2c1CC1CNCC21` (stereo not drawn) [Example 17, 5-Chloro-6-methyl-1,2,3,3a,7,7a-hexahydro-4-thia-2-aza-cyclopenta[α]pentalene] and `Cc1sc2c(c1Cl)CC1CNCC21` (stereo not drawn) [Example 15, 6-Chloro-5-methyl-1,2,3,3a,7,7a-hexahydro-4-thia-2-aza-cyclopenta[α]pentalene] cannot be ordered by EC50: under 100 nM for the first, under 100 nM for the second.

`CCOC(=O)c1c(Br)sc2c1CC1CNCC21` (stereo not drawn) [Example 2, 5-Bromo-1,2,3,3a,7,7a-hexahydro-4-thia-2-aza-cyclopenta[α]pentalene-6-carboxylic acid ethyl ester] and `CCOC(=O)c1c(Cl)sc2c1CC1CNCC21` (stereo not drawn) [Example 4, 5-Chloro-1,2,3,3a,7,7a-hexahydro-4-thia-2-aza-cyclopenta[α]pentalene-6-carboxylic acid ethyl ester] cannot be ordered by EC50: under 100 nM for the first, under 100 nM for the second.

`Cc1sc2c(c1Br)C(C)C1CNCC21` (single isomer, unassigned) [27, Enantiomer 2] and `Cc1sc2c(c1Br)C1CNCCC1C2` (single isomer, unassigned) [33, Enantiomer 1] cannot be ordered by EC50: under 100 nM for the first, under 1000 nM for the second.

Compared with `c1cc2c(s1)C1CNCC1C2` (stereo not drawn) [Example 9, 1,2,3,3a,7,7a-Hexahydro-4-thia-2-aza-cyclopenta[α]pentalene], `Brc1cc2c(s1)C1CNCC1C2` (single isomer, unassigned) [38, Enantiomer 1] is lower in EC50: over 10000 nM for the first, under 100 nM for the second. The second is the more potent here.

`Brc1cc2c(s1)CC1CNCC21` (stereo not drawn) [Example 21, 2-Bromo-3b,4,5,6,6a,7-hexahydro-1-thia-5-aza-cyclopenta[α]pentalene] and `Brc1cc2c(s1)CC1CNCCC21` (single isomer, unassigned) [28, Enantiomer 1] cannot be ordered by EC50: under 100 nM for the first, under 10000 nM for the second.

`FC(F)(F)c1csc2c1C1CNCC1C2` (stereo not drawn) [Example 23, 3-Trifluoromethyl-3b,4,5,6,6a,7-hexahydro-1-thia-5-aza-cyclopenta[α]pentalene] and `COc1c(C(F)(F)F)sc2c1CC1CNCC21` (single isomer, unassigned) [41, Enantiomer 2] cannot be ordered by EC50: under 1000 nM for the first, under 100 nM for the second.

`Nc1sc2c(c1C(=O)c1cccc(C(F)(F)F)c1)CC1CNCC21` (stereo not drawn) [Example 5, (5-Amino-1,2,3,3a,7,7a-hexahydro-4-thia-2-aza cyclopenta[α]-pentalen-6-yl)-(3-trifluoromethyl-phenyl)-methanone] and `CCOC(=O)c1c(N)sc2c1CC1CNCC21` (stereo not drawn) [Example 1, 5-Amino-1,2,3,3a,7,7a-hexahydro-4-thia-2-aza-cyclopenta[α]pentalene-6-carboxylic acid ethyl ester] cannot be ordered by EC50: under 10000 nM for the first, under 100 nM for the second.

`COC(=O)c1cc2c(s1)C1CNCC1C2` (stereo not drawn) [Example 8, 1,2,3,3a,7,7a-Hexahydro-4-thia-2-aza-cyclopenta[α]pentalene-5-carboxylic acid methyl ester] and `Brc1cc2c(s1)C1CCNCC1C2` (stereo not drawn) [Example 31, 2-Bromo-4,5,6,7,7a,8-hexahydro-3bH-3-thia-6-aza-cyclopenta[α]indene] cannot be ordered by EC50: under 10000 nM for the first, under 1000 nM for the second.

`N#Cc1c(Br)sc2c1CC1CNCC21` (centres unmarked) [Example 13, 5-Bromo-1,2,3,3a,7,7a-hexahydro-4-thia-2-aza-cyclopenta[ ]pentalene-6-carbonitrile] and `Cc1c(Br)sc2c1C1CNCC1CC2` (single isomer, unassigned) [46, Enantiomer 2] cannot be ordered by EC50: under 100 nM for the first, under 1000 nM for the second.

`CC1c2sccc2C2CNCC12` (single isomer, unassigned) [34, Enantiomer 1] showed an EC50 of under 10000 nM.

same assay, conditions: read-out: 5-HT2c EC50 (hVSV), HEK 293 EBNA cells expressing human 5HT2c receptor, ligand-induced calcium release

Work on `Brc1cc2c(s1)C1CNCCC1C2` (single isomer, unassigned) [30, Enantiomer 2] yielded an EC50 of over 10000 nM.
